# Results reported in patent publication US5599953A, “C-glycoside analogues of N-(4-hydroxyphenyl)retinamide-O-glucuronide” (The Ohio State Research Foundation, priority 1995, dated 1997).
# Where two headings read alike, the source gives them in different places.
# Tests used:
# [1] = Acid stability, 0.1N methanolic HCl at 37° C. for 2 hours; format: physicochemical
# Experimental: To determine the stability of the C-glucopyranosiduronate linkage towards acidic conditions, samples of 4-HPR-O-glucuronide, 4-(retinamido)phenyl-C-glucuronide and 4-(retinamido)benzyl-C-glucuronide were treated with 0.1N methanolic HCl at 37° C. for 2 hours.
# β-glucuronidase [2] = target: T1, β-glucuronidase (Homo sapiens, UniProt P08236); test: Stability toward β-glucuronidase mediated hydrolysis; format: in vitro ADME; conditions: β-glucuronidase
# T1 sequence (P08236 23-651): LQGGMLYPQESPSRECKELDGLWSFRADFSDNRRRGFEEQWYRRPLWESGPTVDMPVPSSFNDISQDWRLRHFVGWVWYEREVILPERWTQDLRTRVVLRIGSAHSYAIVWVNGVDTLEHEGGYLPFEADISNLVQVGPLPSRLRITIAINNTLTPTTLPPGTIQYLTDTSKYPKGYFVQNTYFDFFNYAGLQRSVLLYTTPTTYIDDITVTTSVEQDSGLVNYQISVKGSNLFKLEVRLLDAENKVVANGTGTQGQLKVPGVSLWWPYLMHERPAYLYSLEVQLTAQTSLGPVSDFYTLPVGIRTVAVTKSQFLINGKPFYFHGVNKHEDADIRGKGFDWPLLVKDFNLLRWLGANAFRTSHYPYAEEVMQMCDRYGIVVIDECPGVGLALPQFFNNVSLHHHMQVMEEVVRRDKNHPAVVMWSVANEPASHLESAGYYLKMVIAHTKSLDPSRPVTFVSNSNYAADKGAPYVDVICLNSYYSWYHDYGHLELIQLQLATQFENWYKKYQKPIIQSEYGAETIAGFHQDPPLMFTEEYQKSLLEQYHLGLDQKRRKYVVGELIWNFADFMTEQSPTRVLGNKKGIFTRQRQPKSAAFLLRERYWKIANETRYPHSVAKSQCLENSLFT
# Experimental: Similarly 1-(D-glucopyranosyluronosyl) retinamide and RAG were evaluated for their stability toward β-glucuronidase medicated hydrolysis under the same conditions as described above.
# mRARα = target: T2, mRARα (Mus musculus, UniProt P11416); test: Drug competition with (3H)retinoic acid binding, mRARα; conditions: read-out: percent reduction of binding of the (3H)retinoic acid, mRARα; 1 μM drug; 5 nM [3H]RA
# T2 construct: made in house; host or cells: Spodoptera frugiperda insect cells, baculovirus (whole cell extract)
# T2 sequence (P11416 1-462): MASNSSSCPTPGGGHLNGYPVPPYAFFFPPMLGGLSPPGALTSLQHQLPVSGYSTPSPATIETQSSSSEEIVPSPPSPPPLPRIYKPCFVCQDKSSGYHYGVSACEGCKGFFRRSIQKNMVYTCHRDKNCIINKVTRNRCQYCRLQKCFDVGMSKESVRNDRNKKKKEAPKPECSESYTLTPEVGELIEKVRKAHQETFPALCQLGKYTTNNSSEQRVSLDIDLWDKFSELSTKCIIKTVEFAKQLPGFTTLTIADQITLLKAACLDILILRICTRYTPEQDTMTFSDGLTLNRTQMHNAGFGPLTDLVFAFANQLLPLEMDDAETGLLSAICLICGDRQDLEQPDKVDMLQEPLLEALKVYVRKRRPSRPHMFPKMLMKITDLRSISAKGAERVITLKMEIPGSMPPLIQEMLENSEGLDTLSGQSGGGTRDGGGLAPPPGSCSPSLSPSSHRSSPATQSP
# mRARβ = target: T3, mRARβ (Mus musculus, UniProt P22605); test: Drug competition with (3H)retinoic acid binding, mRARβ; conditions: read-out: percent reduction of binding of the (3H)retinoic acid, mRARβ; 1 μM drug; 5 nM [3H]RA
# T3 construct: made in house; host or cells: Spodoptera frugiperda insect cells, baculovirus (whole cell extract)
# T3 sequence (P22605 1-448 isoform P22605-3): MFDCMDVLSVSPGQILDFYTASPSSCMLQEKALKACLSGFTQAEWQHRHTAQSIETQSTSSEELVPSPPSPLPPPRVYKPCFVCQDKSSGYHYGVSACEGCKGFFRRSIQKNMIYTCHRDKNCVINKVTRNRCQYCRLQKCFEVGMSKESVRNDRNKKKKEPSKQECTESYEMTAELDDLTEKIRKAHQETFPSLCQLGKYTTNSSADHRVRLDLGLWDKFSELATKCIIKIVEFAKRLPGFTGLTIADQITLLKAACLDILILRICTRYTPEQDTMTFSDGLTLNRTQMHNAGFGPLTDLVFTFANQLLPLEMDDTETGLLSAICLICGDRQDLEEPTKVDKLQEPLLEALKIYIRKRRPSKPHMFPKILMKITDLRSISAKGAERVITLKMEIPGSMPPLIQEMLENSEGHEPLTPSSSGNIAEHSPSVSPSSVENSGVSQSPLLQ
# mRARγ = target: T4, mRARγ (Mus musculus, UniProt P18911); test: Drug competition with (3H)retinoic acid binding, mRARγ; conditions: read-out: percent reduction of binding of the (3H)retinoic acid, mRARγ; 1 μM drug; 5 nM [3H]RA
# T4 construct: made in house; host or cells: Spodoptera frugiperda insect cells, baculovirus (whole cell extract)
# T4 sequence (P18911 1-458): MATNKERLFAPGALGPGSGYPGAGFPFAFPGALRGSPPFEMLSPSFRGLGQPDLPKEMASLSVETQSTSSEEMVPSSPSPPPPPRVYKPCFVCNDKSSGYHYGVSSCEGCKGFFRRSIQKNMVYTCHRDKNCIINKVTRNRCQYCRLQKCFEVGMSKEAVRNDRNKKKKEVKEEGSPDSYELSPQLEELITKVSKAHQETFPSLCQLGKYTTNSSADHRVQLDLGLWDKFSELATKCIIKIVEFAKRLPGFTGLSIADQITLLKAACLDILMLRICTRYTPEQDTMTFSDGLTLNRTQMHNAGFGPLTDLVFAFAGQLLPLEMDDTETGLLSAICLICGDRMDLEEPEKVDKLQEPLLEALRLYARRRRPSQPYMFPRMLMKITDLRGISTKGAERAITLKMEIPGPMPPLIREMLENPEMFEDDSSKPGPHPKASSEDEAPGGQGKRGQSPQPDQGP
# [3] = tested on: MCF-7 human mammary cell tumor culture; conditions: Bhatnagar et al.; cited from earlier work
# [4] = background statement; cited from earlier work
# β-glucuronidase [5] = target: T1, β-glucuronidase; conditions: background statement; cited from earlier work
structure (smiles),measurement,setting,value
"CC1=C(/C=C/C(C)=C/C=C/C(C)=C/C(=O)Nc2ccc(O[C@@H]3O[C@H](C(=O)O)[C@@H](O)[C@H](O)[C@H]3O)cc2)C(C)(C)CCC1 [4-HPR-O-glucuronide, N-(4-hydroxyphenyl)retinamide-O-glucuronide]",acid hydrolysis (stability),[1],had undergone substantial hydrolysis of the ether linkage
same,hydrolysis by β-glucuronidase,β-glucuronidase [2],is hydrolysed to glucuronic acid and the aglycone by β-glucuronidase
same,inhibition at 1 µM,mRARα,14%
same,inhibition at 1 µM,mRARβ,4%
same,inhibition at 1 µM,mRARγ,7%
same,antiproliferative activity and toxicity vs 4-HPR,[3],greater antiproliferative activity and less toxicity
same,stability in acidic media,[4],hydrolyzed in acidic media
same,hydrolysis by β-glucuronidase,β-glucuronidase [5],also by the enzyme β-glucuronidase
same,in vivo half life,β-glucuronidase [5],quite limited
